From patent US8039505B2, “Compounds for modulating T-cells” (University of Utah Research Foundation, priority 2007, dated 2011)

Test system: cell cycle in zebrafish embryos
Assay: Cell cycle profiles in zebrafish embryos (propidium iodide, flow cytometry)
Assay type: in vivo
Details: zebrafish embryos incubated from 4 hours post fertilization overnight, DNA content by flow cytometry
Experimental: FIG. 2 is a group of cell cycle profiles of active compounds tested in 24 hour zebrafish embryos. Specifically, embryos incubated with E3 fishwater (panel A), hydroxyurea (panel B), compound C4 (panel C), and compound C3 (panel D) are shown. After overnight incubation, single cell solution of embryos was prepared and incubated with propidium iodide. Samples were then subjected to flow cytometry to determine DNA content (X axis). Small arrowheads below the X-axis are placed beneath the diploid (G1) n=2 peak, and the tetraploid (G2/M) n=4 peaks. Cells between these two peaks are in S phase. Cells to the left of the G1 peak (sub G1 peak) have lost chromosomes (n<2), and are presumably dying (indicated as % debris in the right hand legend of each panel). Relative numbers of cells (Y-axis) in the different phases of the cell cycle are given on the right side of each panel.
All of these compounds were tested for effects on the cell cycle in zebrafish embryos. Zebrafish embryos were incubated at 4 hours post fertilization with compounds or controls. After overnight incubation in compounds, single cell solution of embryos was prepared and incubated with propidium iodide. Samples were then subjected to flow cytometry to determine DNA content. […] Examples are depicted in FIG. 2.
In FIG. 2, embryos incubated with (A) E3 fishwater, (B) hydroxyurea, (C) compound C4, and (D) C3 are shown. Diploid (G1, n=2) and tetraploid (G2/M, n=4) peaks are identified on the X-axis. Small arrowheads below the X-axis are placed beneath the dipoid (G1) n=2 peak, and the tetraploid (G2/M) n=4 peaks. Cells between these two peaks are in S phase. Cells to the left of the G1 peak (sub G1 peak) have lost chromosomes (n<2) and are presumably dying (indicated as % debris in the right hand legend of each panel). Relative numbers of cells (Y axis) in the different phases of the cell cycle are given on the right side of each panel.

## NC(=O)NO [hydroxyurea, reference compound]
  Effect on the cell cycle: S phase arrest
